Test results from US6737383B1, “Herbicidal oxadiazolidines” (priority 1999, dated 2004).

Tests used:
[1] = tested on: smallflower flatsedge; experiment: Test B flood test smallflower flatsedge; assay type: in vivo, Cyperus difformis
Outline: (§1)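 Flood test on plants grown to the 2-leaf stage; treated plants kept in greenhouse twelve to sixteen days, then visually rated against controls on a 0 (no effect) to 10 (complete control) scale.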

[2] = tested on: soybean; experiment: Test B pre/postemergence soybean; assay type: in vivo, Glycine max
Outline: (§2)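 Response is a visual 0-to-10 score relative to untreated plants, where 0 means no effect and 10 means complete control, taken twelve to sixteen days after application. Treatments went onto soil at planting and onto foliage of 1- to 4-leaf plants, using a surfactant-containing non-phytotoxic solvent.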

[3] = tested on: duck salad; experiment: Test B flood test duck salad; assay type: in vivo, Heteranthera limosa
Outline: as §1

[4] = tested on: velvetleaf; experiment: Test B pre/postemergence velvetleaf; assay type: in vivo, Abutilon theophrasti
Outline: as §2

[5] = tested on: bedstraw; experiment: Test B pre/postemergence bedstraw; assay type: in vivo, Galium aparine
Outline: as §2

[6] = tested on: bamyardgrass; experiment: Test B flood test barnyardgrass; assay type: in vivo, Echinochloa crus-galli
Outline: as §1

[7] = tested on: wild oat; experiment: Test B pre/postemergence wild oat; assay type: in vivo, Avena fatua
Outline: as §2

[8] = tested on: rice; experiment: Test B flood test rice; assay type: in vivo, Oryza sativa
Outline: as §1

[9] = tested on: crabgrass; experiment: Test B pre/postemergence crabgrass; assay type: in vivo, Digitaria sanguinalis
Outline: as §2

[10] = tested on: cocklebur; experiment: Test B pre/postemergence cocklebur; assay type: in vivo, Xanthium strumarium
Outline: as §2

[11] = tested on: corn; experiment: Test B pre/postemergence corn; assay type: in vivo, Zea mays
Outline: as §2

[12] = tested on: rape; experiment: Test B pre/postemergence rape; assay type: in vivo, Brassica napus
Outline: as §2

[13] = tested on: sugar beet; experiment: Test B pre/postemergence sugar beet; assay type: in vivo, Beta vulgaris
Outline: as §2

[14] = tested on: pigweed; experiment: Test B pre/postemergence pigweed; assay type: in vivo, Amaranthus retroflexus
Outline: as §2

[15] = tested on: surinam grass; experiment: Test B pre/postemergence surinam grass; assay type: in vivo, Brachiaria decumbens
Outline: as §2

[16] = tested on: morningglory; experiment: Test B pre/postemergence morningglory; assay type: in vivo, Ipomoea hederacea
Outline: as §2

[17] = Postemergence (flood test species), Rate 125 g/ha, scale of 0 to 10 where 0 is no effect and 10 is complete control
[18] = Rate 62 g/ha, Postemergence section, flood test species, scale of 0 to 10 where 0 is no effect and 10 is complete control
[19] = Rate 250 g/ha, Postemergence (flood test), scale 0 to 10, 0 is no effect, 10 is complete control
[20] = Rate 500 g/ha, listed under Postemergence (flood test species), scale 0 to 10
[21] = Postemergence, Rate 125 g/ha, scale of 0 to 10 where 0 is no effect and 10 is complete control
[22] = Preemergence, Rate 62 g/ha, scale of 0 to 10 where 0 is no effect and 10 is complete control
[23] = Preemergence, Rate 125 g/ha, 0 is no effect, 10 is complete control
[24] = Preemergence, Rate 250 g/ha, scale 0 to 10, 0 is no effect, 10 is complete control
[25] = Preemergence, Rate 500 g/ha, scale 0 to 10 (0 no effect, 10 complete control)
[26] = Rate 62 g/ha, Postemergence, scale of 0 to 10 where 0 is no effect and 10 is complete control
[27] = Rate 250 g/ha, Postemergence, scale 0 to 10, 0 is no effect, 10 is complete control
[28] = Rate 500 g/ha, Postemergence, scale 0 to 10

In the case of `Cc1nsc(C)c1-n1c(=O)on(C(=O)N(c2ccc(Cl)cc2)C(C)C)c1=O` [Compound 159], the “S. Flatsedge plant response rating” value [1, 17] is reported as 0, the “S. Flatsedge plant response rating” value [1, 18] is reported as 0 and the “Plant response rating, S. Flatsedge” value [1, 19] is reported as 0. For the same compound, the “S. Flatsedge plant response rating” value [1, 20] was 0, the “Soybean plant response rating” value [2, 21] was 3 and the “Soybean plant response rating” value [2, 22] was 0. For the same compound, the “Soybean plant response rating (0 to 10 scale)” value [2, 23] was 0, the “Soybean plant response rating” value [2, 24] was 0 and the “Soybean plant response rating” value [2, 25] was 0. For the same compound, the “Soybean plant response rating” value [2, 26] was 0, the “Plant response rating, Soybean” value [2, 27] was 3 and the “Soybean plant response rating” value [2, 28] was 3. For the same compound, the “Ducksalad plant response rating” value [3, 17] was 0, the “Ducksalad plant response rating” value [3, 18] was 0 and the “Plant response rating, Ducksalad” value [3, 19] was 0. The “Ducksalad plant response rating” value [3, 20] was 0, the “Velvetleaf plant response rating” value [4, 22] was 0 and the “Velvetleaf plant response rating (0 to 10 scale)” value [4, 23] was 0. For the same compound, the “Velvetleaf plant response rating” value [4, 24] was 0, the “Velvetleaf plant response rating” value [4, 25] was 0 and the “Plant response rating, Velvetleaf” value [4, 27] was 0. For the same compound, the “Velvetleaf plant response rating” value [4, 28] was 0, the “Bedstraw plant response rating” value [5, 21] was 0 and the “Bedstraw plant response rating” value [5, 22] was 0. The “Bedstraw plant response rating (0 to 10 scale)” value [5, 23] was 0, the “Bedstraw plant response rating” value [5, 24] was 0 and the “Bedstraw plant response rating” value [5, 25] was 0. For the same compound, the “Bedstraw plant response rating” value [5, 26] was 0, the “Plant response rating, Bedstraw” value [5, 27] was 0 and the “Bedstraw plant response rating” value [5, 28] was 0. The “Barnyardgrass plant response rating” value [6, 17] was 0, the “Barnyardgrass plant response rating” value [6, 18] was 0 and the “Plant response rating, Barnyardgrass” value [6, 19] was 0. For the same compound, the “Barnyardgrass plant response rating” value [6, 20] was 0, the “Wild oats plant response rating” value [7, 22] was 0 and the “Wild oats plant response rating (0 to 10 scale)” value [7, 23] was 0. The “Wild oats plant response rating” value [7, 24] was 0, the “Wild oats plant response rating” value [7, 25] was 0 and the “Plant response rating, Wild oats” value [7, 27] was 0. For the same compound, the “Wild oats plant response rating” value [7, 28] was 0, the “Rice plant response rating” value [8, 17] was 0 and the “Rice plant response rating” value [8, 18] was 0. For the same compound, the “Plant response rating, Rice” value [8, 19] was 0, the “Rice plant response rating” value [8, 20] was 0 and the “Crabgrass plant response rating” value [9, 21] was 0. The “Crabgrass plant response rating” value [9, 22] was 0, the “Crabgrass plant response rating (0 to 10 scale)” value [9, 23] was 0 and the “Crabgrass plant response rating” value [9, 24] was 0. For the same compound, the “Crabgrass plant response rating” value [9, 25] was 0, the “Crabgrass plant response rating” value [9, 26] was 0 and the “Plant response rating, Crabgrass” value [9, 27] was 0. The “Crabgrass plant response rating” value [9, 28] was 0, the “Cocklebur plant response rating” value [10, 21] was 0 and the “Cocklebur plant response rating” value [10, 22] was 0. The “Cocklebur plant response rating (0 to 10 scale)” value [10, 23] was 0, the “Cocklebur plant response rating” value [10, 24] was 0 and the “Cocklebur plant response rating” value [10, 25] was 0. For the same compound, the “Cocklebur plant response rating” value [10, 26] was 0, the “Plant response rating, Cocklebur” value [10, 27] was 0 and the “Cocklebur plant response rating” value [10, 28] was 0. For the same compound, the “Corn plant response rating” value [11, 21] was 0, the “Corn plant response rating” value [11, 22] was 0 and the “Corn plant response rating (0 to 10 scale)” value [11, 23] was 0. The “Corn plant response rating” value [11, 24] was 0, the “Corn plant response rating” value [11, 25] was 0 and the “Corn plant response rating” value [11, 26] was 0. The “Plant response rating, Corn” value [11, 27] was 0, the “Corn plant response rating” value [11, 28] was 0 and the “Rape plant response rating” value [12, 21] was 0. For the same compound, the “Rape plant response rating” value [12, 22] was 0, the “Rape plant response rating (0 to 10 scale)” value [12, 23] was 0 and the “Rape plant response rating” value [12, 24] was 0. For the same compound, the “Rape plant response rating” value [12, 25] was 0, the “Rape plant response rating” value [12, 26] was 0 and the “Plant response rating, Rape” value [12, 27] was 0. The “Rape plant response rating” value [12, 28] was 0, the “Sugarbeets plant response rating” value [13, 21] was 0 and the “Sugarbeets plant response rating” value [13, 22] was 0. The “Sugarbeets plant response rating (0 to 10 scale)” value [13, 23] was 0, the “Sugarbeets plant response rating” value [13, 24] was 0 and the “Sugarbeets plant response rating” value [13, 25] was 0. The “Sugarbeets plant response rating” value [13, 26] was 0, the “Plant response rating, Sugarbeets” value [13, 27] was 0 and the “Sugarbeets plant response rating” value [13, 28] was 0. For the same compound, the “Redroot pigweed plant response rating” value [14, 21] was 0, the “Redroot pigweed plant response rating” value [14, 22] was 0 and the “Redroot pigweed plant response rating (0 to 10 scale)” value [14, 23] was 0. The “Redroot pigweed plant response rating” value [14, 24] was 0, the “Redroot pigweed plant response rating” value [14, 25] was 0 and the “Redroot pigweed plant response rating” value [14, 26] was 0. The “Plant response rating, Redroot pigweed” value [14, 27] was 0, the “Redroot pigweed plant response rating” value [14, 28] was 0 and the “B. signalgrass plant response rating” value [15, 21] was 0. For the same compound, the “B. signalgrass plant response rating” value [15, 22] was 0, the “B. signalgrass plant response rating (0 to 10 scale)” value [15, 23] was 0 and the “B. signalgrass plant response rating” value [15, 24] was 0. For the same compound, the “B. signalgrass plant response rating” value [15, 25] was 0, the “B. signalgrass plant response rating” value [15, 26] was 0 and the “Plant response rating, B. signalgrass” value [15, 27] was 0. The “B. signalgrass plant response rating” value ([15]; Rate 500 g/ha, Postemergence, scale 0 to 10, 0 no effect, 10 complete control) was 0, the “Morningglory plant response rating” value [16, 21] was 2 and the “Morningglory plant response rating” value [16, 22] was 0. For the same compound, the “Morningglory plant response rating (0 to 10 scale)” value [16, 23] was 0, the “Morningglory plant response rating” value [16, 24] was 0 and the “Morningglory plant response rating” value [16, 25] was 0. The “Morningglory plant response rating” value [16, 26] was 0, the “Plant response rating, Morningglory” value [16, 27] was 3 and the “Morningglory plant response rating” value [16, 28] was 4.
